Test results: patent US20230129935A1, “SYSTEM, PRODUCT AND METHOD FOR MAINTAINING THE VAGINAL MICROBIOME” (VAGINAL BIOME SCIENCE, INC., priority 2021, published 2023)

Experiments:
[1] = system: herpes simplex virus (HSV-2); settings: after a single exposure; cited from earlier work
[2] = system: HIV; experiment: Killing of HIV and other pathogens by lubricant acidified with lactic acid; settings: vaginal lubricant including substantially racemic lactic acid, matched to vaginal acidity

Compound: polyethylene glycol [polyethylene glycol (PEG-8)]
- susceptibility to herpes simplex virus (HSV-2) [1]: markedly increased susceptibility

Compound: CC(O)C(=O)O (racemic) [lactic acid]
- killing of HIV and many other pathogens [2]: kills HIV and many other pathogens
